Several values for one entry are separate records, joined by “and”; a condition that tells them apart may be missing. Equal entries are not always repeated. Toxic doses and inconclusive results are not listed. Rule for the calls: active = survival T/C of 150% or more; inactive = T/C below 125% in these data.
System: AKR/Lw mice, AKR lymphoma ip, median survival T/C
Test: NCI In Vivo Anticancer Drug Screen. Data for tumor model Lymphoma AKR (Transplanted) (intraperitoneal) in AKR/Lw mice
Settings: endpoint: median survival time, higher = longer survival
Protocol: The antitumor activity of compounds was measured in mice bearing transplantable tumors. Survival or tumor size were measured and the results are expressed as the measurement made in the treated group (T) divided by the measurement made in the vehicle treated control group (C). The tumor model used in this assay is Lymphoma AKR (Transplanted) (intraperitoneal) in AKR/Lw mice

[1] = dose: 0.5 mg/kg/injection, schedule: Q01DX009 (ip), vehicle: saline
[2] = dose: 1.0 mg/kg/injection, schedule: Q01DX009 (ip), vehicle: saline
[3] = dose: 2.0 mg/kg/injection, schedule: Q01DX009 (ip), vehicle: saline
[4] = dose: 12.0 mg/kg/injection, schedule: Q01DX001 (ip), vehicle: saline
[5] = dose: 100.0 mg/kg/injection, schedule: Q01DX001 (ip), vehicle: saline
[6] = dose: 200.0 mg/kg/injection, schedule: Q01DX001 (ip), vehicle: saline
[7] = dose: 400.0 mg/kg/injection, schedule: Q01DX001 (ip), vehicle: saline
[8] = dose: 100.0 mg/kg/injection, schedule: Q01DX001 (ip), vehicle: Klucel (hydroxypropylcellulose) (HPC)
[9] = dose: 200.0 mg/kg/injection, schedule: Q01DX001 (ip), vehicle: Klucel (hydroxypropylcellulose) (HPC)
[10] = dose: 400.0 mg/kg/injection, schedule: Q01DX001 (ip), vehicle: Klucel (hydroxypropylcellulose) (HPC)

Measured: T/C

Nc1nc(=S)c2[nH]cnc2[nH]1
inactive: dose: 0.12 mg/kg/injection, schedule: Q01DX009 (ip), vehicle: saline 96 % of control | dose: 0.25 mg/kg/injection, schedule: Q01DX009 (ip), vehicle: saline 96 % of control | [1] 110 % of control | dose: 0.5 mg/kg/injection, schedule: Q04DX003 (ip), vehicle: saline 110 % of control | [2] 93 % of control and 100 % of control | dose: 1.0 mg/kg/injection, schedule: Q04DX003 (ip), vehicle: saline 120 % of control | [3] 87 % of control | dose: 2.0 mg/kg/injection, schedule: Q04DX003 (ip), vehicle: saline 116 % of control | dose: 4.0 mg/kg/injection, schedule: Q04DX003 (ip), vehicle: saline 120 % of control | dose: 8.0 mg/kg/injection, schedule: Q04DX003 (ip), vehicle: saline 87 % of control | dose: 16.0 mg/kg/injection, schedule: Q04DX003 (ip), vehicle: saline 118 % of control | dose: 6.2 micrograms/kg/injection, schedule: Q03HX032 (ip), vehicle: saline 98 % of control | dose: 12.5 micrograms/kg/injection, schedule: Q03HX032 (ip), vehicle: saline 98 % of control | dose: 25.0 micrograms/kg/injection, schedule: Q03HX032 (ip), vehicle: saline 101 % of control | dose: 50.0 micrograms/kg/injection, schedule: Q03HX032 (ip), vehicle: saline 114 % of control | dose: 100.0 micrograms/kg/injection, schedule: Q03HX032 (ip), vehicle: saline 118 % of control

S=c1nc(-c2ccccc2)c(-c2ccccc2)n[nH]1
inactive: dose: 100.0 mg/kg/injection, schedule: Q01DX001 (ip), vehicle: saline with Tween-80 106 % of control | dose: 200.0 mg/kg/injection, schedule: Q01DX001 (ip), vehicle: saline with Tween-80 103 % of control | dose: 400.0 mg/kg/injection, schedule: Q01DX001 (ip), vehicle: saline with Tween-80 112 % of control

CCn1c(O)c(C=N)c(=O)n(CC)c1=O
inactive: [4] 97 % of control | dose: 12.5 mg/kg/injection, schedule: Q04DX003 (ip), vehicle: Klucel (hydroxypropylcellulose) (HPC) 100 % of control | dose: 25.0 mg/kg/injection, schedule: Q01DX001 (ip), vehicle: saline 111 % of control | dose: 25.0 mg/kg/injection, schedule: Q04DX003 (ip), vehicle: Klucel (hydroxypropylcellulose) (HPC) 93 % of control | dose: 50.0 mg/kg/injection, schedule: Q01DX001 (ip), vehicle: saline 94 % of control | dose: 50.0 mg/kg/injection, schedule: Q04DX003 (ip), vehicle: Klucel (hydroxypropylcellulose) (HPC) 97 % of control

NCCCC(=O)O
inactive: [5] 93 % of control | [6] 95 % of control | [7] 95 % of control

O=[N+]([O-])c1ccc(OCc2ccc(S(=O)(=O)F)c(Cl)c2)c(Cl)c1
inactive: dose: 3.0 mg/kg/injection, schedule: Q01DX009 (ip), vehicle: Klucel (hydroxypropylcellulose) (HPC) 104 % of control | dose: 6.0 mg/kg/injection, schedule: Q01DX009 (ip), vehicle: Klucel (hydroxypropylcellulose) (HPC) 88 % of control | dose: 12.0 mg/kg/injection, schedule: Q01DX009 (ip), vehicle: Klucel (hydroxypropylcellulose) (HPC) 95 % of control | dose: 12.5 mg/kg/injection, schedule: Q01DX009 (ip), vehicle: Klucel (hydroxypropylcellulose) (HPC) 100 % of control | [8] 97 % of control | dose: 100.0 mg/kg/injection, schedule: Q04DX003 (ip), vehicle: Klucel (hydroxypropylcellulose) (HPC) 90 % of control | [9] 97 % of control | dose: 200.0 mg/kg/injection, schedule: Q04DX003 (ip), vehicle: Klucel (hydroxypropylcellulose) (HPC) 88 % of control | [10] 90 % of control | dose: 400.0 mg/kg/injection, schedule: Q04DX003 (ip), vehicle: Klucel (hydroxypropylcellulose) (HPC) 90 % of control

COc1cc2ccc(CC(=O)NCc3ccccc3)cc2cc1OC
inactive: [5] 117 % of control | [6] 107 % of control | dose: 200.0 mg/kg/injection, schedule: Q04DX003 (ip), vehicle: other 95 % of control | [7] 103 % of control

CC[C@H]1CN2CCc3cc(OC)c(OC)cc3[C@@H]2C[C@@H]1C[C@H]1NCCc2cc(OC)c(OC)cc21
inactive: [1] 100 % of control | dose: 0.75 mg/kg/injection, schedule: Q04DX003 (ip), vehicle: saline 87 % of control | [2] 96 % of control and 107 % of control | dose: 1.25 mg/kg/injection, schedule: Q01DX009 (ip), vehicle: saline 102 % of control | dose: 1.5 mg/kg/injection, schedule: Q04DX003 (ip), vehicle: saline 87 % of control | [3] 96 % of control | dose: 2.5 mg/kg/injection, schedule: Q01DX009 (ip), vehicle: saline with Tween-80 100 % of control | dose: 3.0 mg/kg/injection, schedule: Q01DX001 (ip), vehicle: saline 95 % of control | dose: 3.0 mg/kg/injection, schedule: Q04DX003 (ip), vehicle: saline 97 % of control | dose: 5.0 mg/kg/injection, schedule: Q01DX009 (ip), vehicle: saline with Tween-80 122 % of control | dose: 5.0 mg/kg/injection, schedule: Q04DX003 (ip), vehicle: saline 95 % of control | dose: 6.0 mg/kg/injection, schedule: Q01DX001 (ip), vehicle: saline 111 % of control | dose: 6.0 mg/kg/injection, schedule: Q04DX003 (ip), vehicle: saline 96 % of control and 118 % of control | dose: 6.2 mg/kg/injection, schedule: Q01DX001 (ip), vehicle: saline 105 % of control | dose: 6.2 mg/kg/injection, schedule: Q04DX003 (ip), vehicle: saline 96 % of control and 100 % of control and 124 % of control | dose: 6.25 mg/kg/injection, schedule: Q04DX003 (ip), vehicle: saline 116 % of control and 117 % of control | dose: 7.5 mg/kg/injection, schedule: Q01DX001 (ip), vehicle: saline 111 % of control | dose: 10.0 mg/kg/injection, schedule: Q01DX009 (ip), vehicle: saline with Tween-80 106 % of control | [4] 115 % of control | dose: 12.5 mg/kg/injection, schedule: Q01DX001 (ip), vehicle: saline 103 % of control and 113 % of control | dose: 15.0 mg/kg/injection, schedule: Q01DX001 (ip), vehicle: saline 117 % of control

OCC#CC#CCO
inactive: [5] 100 % of control | [6] 92 % of control

CC1(C)N=C(N)N=C(N)N1c1cc(Cl)c(Cl)cc1Cl
inactive: dose: 25.0 mg/kg/injection, schedule: Q01DX001 (ip), vehicle: Klucel (hydroxypropylcellulose) (HPC) 106 % of control | dose: 35.0 mg/kg/injection, schedule: Q01DX001 (ip), vehicle: Klucel (hydroxypropylcellulose) (HPC) 100 % of control | dose: 50.0 mg/kg/injection, schedule: Q01DX001 (ip), vehicle: Klucel (hydroxypropylcellulose) (HPC) 106 % of control

COC(=O)C1(C)CSCCC1=O (stereo not given)
inactive: [8] 91 % of control | [9] 105 % of control | [10] 96 % of control

CC(/C=N/N=C(N)N)=N\N=C(N)N
inactive: dose: 1.5 mg/kg/injection, schedule: Q01DX015 (ip), vehicle: saline 87 % of control | dose: 5.0 mg/kg/injection, schedule: Q01DX015 (ip), vehicle: saline 90 % of control | dose: 6.25 mg/kg/injection, schedule: Q01DX015 (ip), vehicle: saline 96 % of control | dose: 10.0 mg/kg/injection, schedule: Q01DX015 (ip), vehicle: saline 90 % of control

Source: PubChem BioAssay AID190 (DTP/NCI, 2004)
